Measurements reported in patent US20250019671A1, “RECOMBINANT POLYPEPTIDE HAVING CARBOXYLIC ACID REDUCING ACTIVITY” (priority 2021, published 2025).

What was measured:
[1] = test system: O=C(O)CCCCC(=O)O; assay: purified protein, by the assay type; details: 0.2 mM NADPH, 0.5 mM ATP, 10 mM MgCl2, 100 mM HEPES potassium buffer pH=8.0, 30° C., mean of two independent studies
[2] = target: Mycobacterium abscessus carboxylic acid reductase variant W283R/A303M (modified carboxylic acid reductase 1), SEQ ID NO: 3 (Mycobacteroides abscessus, UniProt B1MLD7, A303M/W283R); details: disodium adipate 0.1875-3 mM; 0.2 mM NADPH, 0.5 mM ATP, pH=8.0, 30° C.; mean of two independent studies
Source text: (§1) Examples of the recombinant polypeptide (also referred to as “modified carboxylic acid reductase”) having the amino acid sequence A according to the present invention are illustrated in FIG. 3 (modified carboxylic acid reductase 1, SEQ ID NO: 3) and FIG. 4 (modified carboxylic acid reductase 2, SEQ ID NO: 4). The modified carboxylic acid reductase 1 (consisting of the polypeptide set forth in SEQ ID NO: 3) illustrated in FIG. 3 has amino acid substitutions of W283R and A303M with respect to SEQ ID NO: 1. The modified carboxylic acid reductase 2 (consisting of the polypeptide set forth in SEQ ID NO: 4) illustrated in FIG. 4 has amino acid substitutions of W283R and L335F with respect to SEQ ID NO: 1. That is, in the modified carboxylic acid reductase 1, the amino acid residue at the position corresponding to position 283 and the amino acid residue at the position corresponding to position 303 are substituted with arginine and methionine, respectively, based on the amino acid sequence set forth in SEQ ID NO: 1. In the modified carboxylic acid reductase 2, the amino acid residue at the position corresponding to position 283 and the amino acid residue at the position corresponding to position 335 are substituted with arginine and phenylalanine, respectively, based on the amino acid sequence set forth in SEQ ID NO: 1.

[3] = test system: Mycobacterium abscessus carboxylic acid reductase variant W283R/A303M (modified carboxylic acid reductase 1), SEQ ID NO: 3
Source text: as §1

[4] = test system: Mycobacterium abscessus carboxylic acid reductase variant L342E; details: literature value (Non Patent Literature 6); cited from earlier work
[5] = test system: Mycobacterium abscessus carboxylic acid reductase variant G418E; details: literature value (Non Patent Literature 6); cited from earlier work
[6] = other: disodium adipate 3.125-50 mM

In the case of “Mycobacterium abscessus carboxylic acid reductase variant W283R/A303M (modified carboxylic acid reductase 1), SEQ ID NO: 3 (Mycobacteroides abscessus ATCC 19977; A303M/W283R)”, the Km ([1]; other: disodium adipate 0.1875-3 mM) is reported as 1.06 mM.

For O=C(O)CCCCC(=O)O [adipic acid, hexanedioic acid], the Kcat [2] was 3.53 s⁻¹, the Vmax [2] was 24.8 µmol/L/min and the “Km of the mutant enzyme for adipic acid compared to the existing variant carboxylic acid reductases (L342 and G418E mutants)” value ([3]; W283R/A303M mutant vs literature L342 and G418E mutants) was 1/17. For the same compound, the “Km of the mutant enzyme for adipic acid relative to that of the wild-type enzyme” value ([3]; W283R/A303M mutant vs wild-type enzyme) was 1/20, the Kcat [4] was 2.72 ± 0.09 s⁻¹ and the Km [4] was 56.6 mM. For the same compound, the Km [5] was 18.7 mM.

In the case of “Mycobacterium abscessus carboxylic acid reductase, wild-type, SEQ ID NO: 1 (Mycobacteroides abscessus ATCC 19977)”, the Km [1, 6] is reported as 23.3 mM, the Vmax [1, 6] is reported as 18.1 µM/min and the kcat [1, 6] is reported as 1.68 s⁻¹.
